In US20120220581A1, “IMIDAZO[1,2-b]PYRIDAZINE DERIVATIVES AND THEIR USE AS PDE10 INHIBITORS” (Janssen-Cilag, S.A., priority 2009, published 2012):
Where two headings read alike, the source gives them in different places.

Columns and labels:
[1] = biological target: T1, Rat recombinant PDE10A (rPDE10A2) (Rattus norvegicus, UniProt Q9QYJ6); assay: In vitro assay PDE10A (SPA, 3H-cAMP); type: biochemical
T1 construct: inferred from the Ni metal chelate purification; made in house; host or cells: Sf9 insect cells (baculovirus)
T1 sequence (Q9QYJ6 1-794): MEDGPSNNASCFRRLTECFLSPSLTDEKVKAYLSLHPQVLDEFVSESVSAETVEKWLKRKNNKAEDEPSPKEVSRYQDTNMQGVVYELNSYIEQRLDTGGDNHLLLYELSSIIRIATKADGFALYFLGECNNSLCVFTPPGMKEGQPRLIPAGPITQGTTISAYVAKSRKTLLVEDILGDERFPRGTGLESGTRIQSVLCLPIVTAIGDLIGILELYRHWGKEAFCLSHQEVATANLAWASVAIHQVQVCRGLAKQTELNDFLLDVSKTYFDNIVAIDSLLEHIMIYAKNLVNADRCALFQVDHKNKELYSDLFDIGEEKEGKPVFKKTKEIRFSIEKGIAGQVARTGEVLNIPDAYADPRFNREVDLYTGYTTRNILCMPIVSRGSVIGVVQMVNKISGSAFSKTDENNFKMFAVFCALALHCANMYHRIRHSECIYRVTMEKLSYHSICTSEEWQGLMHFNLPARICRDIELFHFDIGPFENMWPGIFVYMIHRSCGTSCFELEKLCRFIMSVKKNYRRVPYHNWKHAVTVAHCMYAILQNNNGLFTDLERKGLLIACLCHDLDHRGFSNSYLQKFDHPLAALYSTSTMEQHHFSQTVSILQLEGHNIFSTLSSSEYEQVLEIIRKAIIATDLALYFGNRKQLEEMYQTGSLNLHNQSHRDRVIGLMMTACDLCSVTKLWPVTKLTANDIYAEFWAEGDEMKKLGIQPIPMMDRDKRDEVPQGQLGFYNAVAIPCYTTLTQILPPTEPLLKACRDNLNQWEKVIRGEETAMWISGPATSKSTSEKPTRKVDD
How it was run: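 Rat PDE10A2 expressed in Sf9 cells and Ni-purified; incubated with 60 nM cAMP plus 0.008 μCi 3H-cAMP in 50 mM Tris pH 7.8, 8.3 mM MgCl2, 1.7 mM EGTA for 60 min at room temperature. Product quantified by scintillation proximity counting; final DMSO 1%.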

[2] = biological target: other members of the PDE family (Homo sapiens, UniProt O00408); assay: In vitro PDE selectivity assay (SPA), other members of the PDE family (protocols in Table A); type: biochemical; conditions: hPDE2A; read-out: PDE 2A (expressed as pIC50) (converted)
other members of the PDE family (Homo sapiens, UniProt O00408), sequence (O00408 whole entry): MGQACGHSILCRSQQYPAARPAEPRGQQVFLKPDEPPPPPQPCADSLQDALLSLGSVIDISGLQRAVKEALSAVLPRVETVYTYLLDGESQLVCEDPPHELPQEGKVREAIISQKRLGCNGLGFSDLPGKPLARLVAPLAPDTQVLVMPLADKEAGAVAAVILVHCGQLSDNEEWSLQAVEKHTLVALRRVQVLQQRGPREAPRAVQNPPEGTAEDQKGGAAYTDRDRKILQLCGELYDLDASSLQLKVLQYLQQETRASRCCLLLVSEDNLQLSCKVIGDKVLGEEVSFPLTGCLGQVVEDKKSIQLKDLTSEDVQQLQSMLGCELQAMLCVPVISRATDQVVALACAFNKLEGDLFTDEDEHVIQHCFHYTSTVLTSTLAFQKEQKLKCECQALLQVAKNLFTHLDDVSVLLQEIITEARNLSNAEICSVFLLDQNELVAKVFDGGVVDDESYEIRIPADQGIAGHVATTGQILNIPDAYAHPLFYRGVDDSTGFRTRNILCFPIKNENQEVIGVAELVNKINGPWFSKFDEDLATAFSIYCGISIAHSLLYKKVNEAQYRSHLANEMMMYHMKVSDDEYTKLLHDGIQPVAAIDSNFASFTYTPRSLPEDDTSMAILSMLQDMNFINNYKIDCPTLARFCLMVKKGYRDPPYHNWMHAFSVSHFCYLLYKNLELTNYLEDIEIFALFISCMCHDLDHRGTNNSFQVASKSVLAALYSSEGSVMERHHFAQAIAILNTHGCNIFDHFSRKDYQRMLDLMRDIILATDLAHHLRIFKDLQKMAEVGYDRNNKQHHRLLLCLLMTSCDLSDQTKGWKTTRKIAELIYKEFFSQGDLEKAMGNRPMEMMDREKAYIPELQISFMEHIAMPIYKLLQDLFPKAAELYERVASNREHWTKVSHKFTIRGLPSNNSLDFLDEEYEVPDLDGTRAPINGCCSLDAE
Protocol: (§1) Rat recombinant PDE10A (rPDE10A2) was expressed in Sf9 cells using a recombinant rPDE10A baculovirus construct. Cells were harvested after 48 h of infection and the rPDE10A protein was purified by metal chelate chromatography on Ni-sepharose 6FF. Tested compounds were dissolved and diluted in 100% DMSO to a concentration 100 fold of the final concentration in the assay. Compound dilutions (0.4 μl) were added in 384 well plates to 20 μl of incubation buffer (50 mM Tris pH 7.8, 8.3 mM MgCl2, 1.7 mM EGTA). 10 μl of rPDE10A enzyme in incubation buffer was added and the reaction was started by addition of 10 μl substrate to a final concentration of 60 nM cAMP and 0.008 μCi ^3H-cAMP. The reaction was incubated for 60 minutes at room temperature. After incubation, the reaction was stopped with 20 μl of stop solution consisting of 17.8 mg/ml PDE SPA (scintillation proximity assay) beads. After sedimentation of the beads during 30 minutes the radioactivity was measured in a Perkin Elmer Topcount scintillation counter and results were expressed as cpm. For blanc values the enzyme was omitted from the reaction and replaced by incubation buffer. Control values were obtained by addition of a final concentration of 1% DMSO instead of compound. The same assay principle is applied for the measurement of the affinity of the compound for other members of the PDE family with appropriate modifications in incubation buffer, substrate concentration, incubation time and stop solution. An overview of the different protocols is presented in table A. A best fit curve is fitted by a minimum sum of squares method to the plot of % of control value substracted with blanc value versus compound concentration and the half maximal inhibitory concentration (IC50) value is derived from this curve.
(§2) The compounds of the invention are generally selective for PDE10 compared to other PDEs and there are a few that also have affinity for PDE1B1, 4D3 and 5A3.

[3] = system: apomorphine-induced stereotypy in rats; assay: Apomorphine-induced stereotypy in rats (APO); type: in vivo; conditions: Rattus norvegicus, ≧: active in 30% of the animals at the indicated dose, ≦: active in 60%
Protocol: Apomorphine (1.0 mg/kg, i.v.)-induced stereotypy (compulsive sniffing, licking, chewing) was scored every 5 min over the first hour after injection of apomorphine, following a 1 hour interval pre-treatment with the test compound. The score system was: (3) pronounced, (2) moderate, (1) slight, and (0) absent.

PDE10 = biological target: T2, PDE10 (Rattus norvegicus, UniProt Q9QYJ6); assay: PDE10 occupancy ([3H]-MP-10, striatum); type: in vivo; conditions: rat; for ED50: dose response; for receptor occupancy at 10 mg/kg: single dose 10 mg/kg
T2 construct: from tissue; host or cells: rat brain sections, striatum (in vivo dosing, ex vivo autoradiography)
T2 sequence (Q9QYJ6 1-794): T1 sequence (Q9QYJ6 1-794)
Protocol: Dose-response or single dose experiments were performed to measure PDE10 occupancy 1 hour after subcutaneous (s.c.) or oral (p.o.) administration. Male Wistar rats (200 g) were treated by s.c. or p.o. administration of various PDE10 inhibitors. The PDE10 radioligand [^3H]-MP-10 (10 μCi/animal) was injected intravenously (i.v.) 30 minutes before sacrifice. Brains were immediately removed from the skull and rapidly frozen. Twenty μm-thick brain sections were cut using a cryostat-microtome, thaw-mounted on microscope slides and loaded in a β-imager to quantify PDE10 occupancy in the striatum.

PDE4D3 = PDE4D3 (Homo sapiens, UniProt Q08499); assay: In vitro PDE selectivity assay (SPA), PDE4D3; type: biochemical; conditions: hPDE4D3; read-out: PDE 4D3 (expressed as pIC50) (converted)
PDE4D3, sequence (Q08499 1-673 isoform Q08499-2): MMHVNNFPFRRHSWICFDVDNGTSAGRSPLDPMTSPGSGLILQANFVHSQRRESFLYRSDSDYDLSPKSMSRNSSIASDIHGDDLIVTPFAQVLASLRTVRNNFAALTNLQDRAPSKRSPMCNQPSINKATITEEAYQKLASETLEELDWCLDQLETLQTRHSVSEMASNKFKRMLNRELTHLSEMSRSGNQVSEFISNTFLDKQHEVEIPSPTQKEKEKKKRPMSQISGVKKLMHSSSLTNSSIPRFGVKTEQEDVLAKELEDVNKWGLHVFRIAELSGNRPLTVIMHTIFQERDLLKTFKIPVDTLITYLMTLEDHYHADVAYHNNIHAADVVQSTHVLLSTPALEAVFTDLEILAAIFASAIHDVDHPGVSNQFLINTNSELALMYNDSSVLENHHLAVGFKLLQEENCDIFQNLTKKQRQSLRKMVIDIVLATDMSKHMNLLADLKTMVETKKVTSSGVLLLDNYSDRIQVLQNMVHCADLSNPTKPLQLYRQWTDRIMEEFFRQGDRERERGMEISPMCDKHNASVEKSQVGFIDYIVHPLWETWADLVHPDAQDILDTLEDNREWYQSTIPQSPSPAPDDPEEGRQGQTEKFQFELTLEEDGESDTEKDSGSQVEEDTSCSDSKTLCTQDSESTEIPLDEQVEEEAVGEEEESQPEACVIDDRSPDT
Protocol: as §1, §2

PDE5A3 = PDE5A3 (Homo sapiens, UniProt O76074); assay: In vitro PDE selectivity assay (SPA), PDE5A3; type: biochemical; conditions: hPDE5A3; read-out: PDE 5A3 (expressed as pIC50) (converted)
Protocol: as §1, §2

[4] = biological target: other members of the PDE family (Homo sapiens, UniProt O76083); assay: In vitro PDE selectivity assay (SPA), other members of the PDE family (protocols in Table A); type: biochemical; conditions: hPDE9A; read-out: PDE 9A (expressed as pIC50) (converted)
other members of the PDE family (Homo sapiens, UniProt O76083), sequence (O76083 whole entry): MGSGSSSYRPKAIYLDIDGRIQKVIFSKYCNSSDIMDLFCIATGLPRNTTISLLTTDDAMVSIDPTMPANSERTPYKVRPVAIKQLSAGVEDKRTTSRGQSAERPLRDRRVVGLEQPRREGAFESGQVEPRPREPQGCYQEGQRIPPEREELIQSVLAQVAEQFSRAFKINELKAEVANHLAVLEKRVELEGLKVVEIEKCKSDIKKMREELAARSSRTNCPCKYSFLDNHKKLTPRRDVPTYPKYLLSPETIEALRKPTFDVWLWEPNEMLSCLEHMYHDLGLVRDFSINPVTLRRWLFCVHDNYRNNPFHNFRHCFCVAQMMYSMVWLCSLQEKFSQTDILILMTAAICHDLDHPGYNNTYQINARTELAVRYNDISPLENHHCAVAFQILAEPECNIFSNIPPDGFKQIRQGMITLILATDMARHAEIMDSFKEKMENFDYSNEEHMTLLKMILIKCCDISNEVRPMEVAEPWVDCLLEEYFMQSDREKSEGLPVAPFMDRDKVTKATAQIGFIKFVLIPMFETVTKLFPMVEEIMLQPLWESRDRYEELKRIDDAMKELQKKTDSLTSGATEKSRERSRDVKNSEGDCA
Protocol: as §1, §2

[5] = biological target: other members of the PDE family (Homo sapiens, UniProt Q13946); assay: as above; type: biochemical; conditions: hPDE7A1; read-out: PDE 7A (expressed as pIC50) (converted)
other members of the PDE family (Homo sapiens, UniProt Q13946), sequence (Q13946 whole entry): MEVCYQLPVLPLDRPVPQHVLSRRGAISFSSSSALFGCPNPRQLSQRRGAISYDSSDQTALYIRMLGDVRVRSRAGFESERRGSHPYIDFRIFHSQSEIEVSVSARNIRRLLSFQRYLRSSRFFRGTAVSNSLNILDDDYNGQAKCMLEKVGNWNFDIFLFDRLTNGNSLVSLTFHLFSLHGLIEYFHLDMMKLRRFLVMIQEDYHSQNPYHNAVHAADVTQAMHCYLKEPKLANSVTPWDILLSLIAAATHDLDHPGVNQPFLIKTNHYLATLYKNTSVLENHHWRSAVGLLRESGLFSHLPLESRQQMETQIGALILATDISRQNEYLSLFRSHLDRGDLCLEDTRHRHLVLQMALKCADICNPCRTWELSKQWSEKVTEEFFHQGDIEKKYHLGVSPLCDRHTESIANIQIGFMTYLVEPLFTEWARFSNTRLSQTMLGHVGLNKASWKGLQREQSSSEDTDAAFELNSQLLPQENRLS
Protocol: as §1, §2

[6] = biological target: other members of the PDE family (Homo sapiens, UniProt Q14432); assay: as above; type: biochemical; conditions: hPDE3A; read-out: PDE 3A (expressed as pIC50) (converted)
other members of the PDE family (Homo sapiens, UniProt Q14432), sequence (Q14432 whole entry): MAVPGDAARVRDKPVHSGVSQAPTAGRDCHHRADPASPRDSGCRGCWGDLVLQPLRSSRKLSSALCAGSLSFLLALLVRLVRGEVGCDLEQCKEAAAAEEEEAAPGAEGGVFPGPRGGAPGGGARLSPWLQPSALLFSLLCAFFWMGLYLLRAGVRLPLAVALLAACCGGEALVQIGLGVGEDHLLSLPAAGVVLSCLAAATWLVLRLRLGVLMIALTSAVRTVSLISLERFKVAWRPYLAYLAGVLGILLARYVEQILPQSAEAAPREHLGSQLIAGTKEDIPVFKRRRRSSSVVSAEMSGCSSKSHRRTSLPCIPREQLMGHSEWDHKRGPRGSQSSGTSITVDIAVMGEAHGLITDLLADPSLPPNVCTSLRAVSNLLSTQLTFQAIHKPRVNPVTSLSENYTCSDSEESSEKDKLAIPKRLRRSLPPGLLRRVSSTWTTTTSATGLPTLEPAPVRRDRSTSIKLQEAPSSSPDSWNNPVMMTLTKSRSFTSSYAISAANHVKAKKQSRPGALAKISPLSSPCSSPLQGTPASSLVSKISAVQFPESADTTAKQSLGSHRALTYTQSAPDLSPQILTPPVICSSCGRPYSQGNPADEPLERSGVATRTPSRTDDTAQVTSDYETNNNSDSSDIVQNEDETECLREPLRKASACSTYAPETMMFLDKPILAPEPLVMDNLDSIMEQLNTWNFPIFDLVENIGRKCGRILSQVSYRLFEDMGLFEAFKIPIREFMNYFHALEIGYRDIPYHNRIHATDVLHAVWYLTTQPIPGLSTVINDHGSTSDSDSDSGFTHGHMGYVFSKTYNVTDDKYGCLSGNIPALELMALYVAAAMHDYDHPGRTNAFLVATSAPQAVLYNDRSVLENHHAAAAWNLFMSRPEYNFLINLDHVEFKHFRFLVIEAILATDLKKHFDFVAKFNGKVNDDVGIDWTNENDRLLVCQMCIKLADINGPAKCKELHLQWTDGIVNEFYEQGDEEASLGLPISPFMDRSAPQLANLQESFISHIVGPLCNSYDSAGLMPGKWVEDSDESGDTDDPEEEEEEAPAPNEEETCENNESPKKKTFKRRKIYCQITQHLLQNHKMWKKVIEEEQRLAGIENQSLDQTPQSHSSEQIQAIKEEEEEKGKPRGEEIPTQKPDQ
Protocol: as §1, §2

[7] = biological target: other members of the PDE family (Homo sapiens, UniProt Q9HCR9); assay: as above; type: biochemical; conditions: hPDE11A4; read-out: PDE 11A4 (expressed as pIC50) (converted)
other members of the PDE family (Homo sapiens, UniProt Q9HCR9), sequence (Q9HCR9 whole entry): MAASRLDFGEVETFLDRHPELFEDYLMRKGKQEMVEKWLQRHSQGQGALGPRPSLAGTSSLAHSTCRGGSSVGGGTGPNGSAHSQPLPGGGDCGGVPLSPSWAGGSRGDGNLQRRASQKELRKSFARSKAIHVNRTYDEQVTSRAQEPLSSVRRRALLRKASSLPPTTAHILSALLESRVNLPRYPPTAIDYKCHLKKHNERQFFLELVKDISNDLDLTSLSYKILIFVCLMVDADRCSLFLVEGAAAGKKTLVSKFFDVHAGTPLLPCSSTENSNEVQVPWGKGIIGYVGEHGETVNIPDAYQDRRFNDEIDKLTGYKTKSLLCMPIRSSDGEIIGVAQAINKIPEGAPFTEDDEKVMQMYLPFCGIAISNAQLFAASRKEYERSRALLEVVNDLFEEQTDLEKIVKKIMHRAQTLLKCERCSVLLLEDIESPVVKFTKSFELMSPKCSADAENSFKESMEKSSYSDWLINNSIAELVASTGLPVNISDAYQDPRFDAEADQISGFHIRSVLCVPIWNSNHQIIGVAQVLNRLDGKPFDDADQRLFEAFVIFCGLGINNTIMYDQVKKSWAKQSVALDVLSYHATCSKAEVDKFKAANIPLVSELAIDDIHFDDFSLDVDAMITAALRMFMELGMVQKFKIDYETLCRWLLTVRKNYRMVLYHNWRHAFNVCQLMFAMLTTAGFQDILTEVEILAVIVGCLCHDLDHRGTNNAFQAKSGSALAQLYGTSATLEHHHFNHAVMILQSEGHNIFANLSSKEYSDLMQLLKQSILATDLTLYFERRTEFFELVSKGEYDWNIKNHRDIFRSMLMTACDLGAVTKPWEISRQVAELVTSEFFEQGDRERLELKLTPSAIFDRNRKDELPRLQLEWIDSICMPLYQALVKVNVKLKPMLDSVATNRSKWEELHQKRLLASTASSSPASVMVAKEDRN
Protocol: as §1, §2

[8] = Table 4 in vitro selectivity, read-out: PDE 10A2 (expressed as pIC50) (converted)
[9] = pIC50 corresponds to the −log IC50 expressed in mol/L, read-out: PDE10A2 pIC50 (converted)
[10] = dose at which 50% of the tested animals show the effect

SMILES | IC50 [1, 8] | IC50 [1, 9] | IC50 [2] | ED50 (PDE10; sc, subcutaneous administration, read-out: PDE10 in vivo occupancy ED50 sc) | IC50 (PDE4D3) | IC50 (PDE5A3) | IC50 [4] | IC50 [5] | IC50 [6] | IC50 [7] | receptor occupancy at 10 mg/kg (PDE10; sc, subcutaneous, read-out: SD sc % occupancy at 10 mg/kg) | ED50 (PDE10; oral administration, read-out: PDE10 in vivo occupancy ED50 po) | receptor occupancy at 10 mg/kg (PDE10; oral, read-out: SD po % occupancy at 10 mg/kg) | ED50 [3, 10] | ED50 ([3]; po, * compound not soluble, tested orally as a suspension)
COC(C)(C)Cc1ccc(-c2c(C)nc3c(-c4ccncc4)ccnn23)cn1 [compound 7, 3-[6-(2-methoxy-2-methylpropyl)-3-pyridinyl-2-methyl-8-(4-pyridinyl)-imidazol-1,2-b]pyridazine] | 25.7 nM | 25.7 nM | > 10000 nM | 1.6 mg/kg |  |  |  |  |  |  |  |  |  | 0.3 mg/kg | 
COCCc1ccc(-c2c(C3CC3)nc3c(-c4ccncc4)ccnn23)cn1 [compound 10, 2-cyclopropyl-3-[6-(2-methoxyethyl)-3-pyridinyl]-8-(4-pyridinyl)-imidazo[1,2-b]pyridazine] | 11.5 nM | 11.5 nM | 6610 nM |  | 1260 nM | 1290 nM | > 10000 nM | > 10000 nM | > 10000 nM | 1410 nM |  |  |  | 1.2 mg/kg | 
COC(C)(C)COc1ccc(-c2c(C)nc3c(N4CCOCC4)ccnn23)cn1 [compound 18, 3-[6-(2-methoxy-2-methylpropoxy)-3-pyridinyl]-2-methyl-8-(4-morpholinyl)-imidazo[,2-b]pyridazine] | 170 nM | 170 nM | > 10000 nM |  | > 10000 nM |  | > 10000 nM | > 10000 nM | > 10000 nM | > 10000 nM | 46% |  |  | 5 mg/kg | 

Further lines, with some results ahead:

IC50 [1, 8] | IC50 [1, 9] | IC50 [2] | ED50 (PDE10; sc, subcutaneous administration, read-out: PDE10 in vivo occupancy ED50 sc) | IC50 (PDE4D3) | IC50 (PDE5A3) | IC50 [4] | IC50 [5] | IC50 [6] | IC50 [7] | receptor occupancy at 10 mg/kg (PDE10; sc, subcutaneous, read-out: SD sc % occupancy at 10 mg/kg) | ED50 (PDE10; oral administration, read-out: PDE10 in vivo occupancy ED50 po) | receptor occupancy at 10 mg/kg (PDE10; oral, read-out: SD po % occupancy at 10 mg/kg) | SMILES | ED50 [3, 10] | ED50 ([3]; po, * compound not soluble, tested orally as a suspension)
115 nM | 115 nM | > 10000 nM |  |  |  |  |  |  |  |  | 4.3 mg/kg |  | COC(C)(C)Cc1ccc(-c2c(C)nc3c(-c4ccncc4)cc(C)nn23)cn1 [compound 48, 3-[6-(2-methoxy-2-methylpropyl)-3-pyridinyl]-2,6-dimethyl-8-(4-pyridinyl)-imidazo[1,2-b]pyridazine] | ≥ 2.5 mg/kg | 
97.7 nM | 97.7 nM | > 10000 nM |  | > 10000 nM | > 10000 nM | > 10000 nM | > 10000 nM | > 10000 nM |  |  |  |  | Cc1nc2c(N3CCOCC3)ccnn2c1-c1cnn(C2CCOCC2)c1 [compound 117, 2-methyl-8-(4-morpholinyl)-3-[1-(tetrahydro-2H-pyran-4-yl)-1H-pyrazol-4-yl]-imidazo[1,2-b]pyridazine] |  | 
50.1 nM | 50.1 nM | > 10000 nM |  | > 10000 nM |  | > 10000 nM | > 10000 nM | > 10000 nM | > 10000 nM |  |  | 4% | Cc1nc2c(N3CCOCC3)ccnn2c1-c1cnn(CC2CC2(F)F)c1 (stereo not drawn) [compound 118] |  | ≤ 10 mg/kg
